Results: article PMC3918733, “The Enzymatic Decolorization of Textile Dyes by the Immobilized Polyphenol Oxidase from Quince Leaves” (The Scientific World Journal, 2014)

System: T1, polyphenol oxidase (PPO) from quince leaves
T1 construct: isoenzyme not identified; free enzyme
Assay: absorbance at […] nm, Lineweaver-Burk
Assay type: biochemical, Cydonia oblonga
Conditions: free enzyme, partially purified; optimum pH and temperature (pH 7.5, 30 °C), phosphate buffer

## Oc1ccccc1O [catechol]
  Km: 5.86 mM
